Assay results published in ChEMBL document CHEMBL5346937, “Repurposing 1,2,4-oxadiazoles as SARS-CoV-2 PLpro inhibitors and investigation of their possible viral entry blockade potential” (Eur J Med Chem, 2023).

Columns and labels:
[1] = system: A549; experiment: Cytotoxicity against human […] A549 cells assessed as reduction in cell viability incubated for 72 hrs by MTT assay; format: functional; details: for CC50: Homo sapiens, A549
[2] = system: WI-38; experiment: (§1) Cytotoxicity against human WI-38 cells assessed as reduction in cell viability incubated for 72 hrs by MTT assay; format: toxicity, cell-based; details: wi-38, 72 h
[3] = target: Replicase polyprotein 1ab (Severe acute respiratory syndrome coronavirus 2) (UniProt P0DTD1); experiment: Inhibition of SARS-CoV-2 PLpro at 10 uM using Arg-Leu-Arg-Gly-Gly-AMC as substrate preincubated for 5 mins followed by substrate addition measured after 6 mins by fluorescence based assay relative to control; details: time 11.0 min
[4] = target: Spike glycoprotein/Angiotensin-converting enzyme 2 (Severe acute respiratory syndrome coronavirus 2) (UniProt Q9BYF1+P0DTC2); experiment: Inhibition of SARS-CoV-2 spike protein RBD- human ACE2 interaction at 10 uM pretreated with SARS-CoV-2 spike RBD for 2 hrs followed by ACE2 addition and measured after 2 hrs by […] based ELISA analysis relative to control; format: protein assay; details: time 4.0 hrs
[5] = system: SARS-CoV-2; experiment: Antiviral activity against SARS-CoV-2 assessed as inhibition of viral growth; format: functional, organism-based; details: Severe acute respiratory syndrome coronavirus 2
[6] = as §1; format: toxicity, cell-based; details: WI-38 cells
[7] = Octanol/water partition coefficient, logP of the compound by HPLC analysis; format: physicochemical
[8] = target: Spike glycoprotein/Angiotensin-converting enzyme 2 (Severe acute respiratory syndrome coronavirus 2, UniProt P0DTC2+Q9BYF1); experiment: Inhibition of SARS-CoV-2 spike protein RBD- human ACE2 interaction pretreated with SARS-CoV-2 spike RBD for 2 hrs followed by ACE2 addition and measured after 2 hrs by […] based ELISA analysis; format: protein assay
Sequence of Spike glycoprotein/Angiotensin-converting enzyme 2 (Q9BYF1 18-805 limits assumed, other chains not shown): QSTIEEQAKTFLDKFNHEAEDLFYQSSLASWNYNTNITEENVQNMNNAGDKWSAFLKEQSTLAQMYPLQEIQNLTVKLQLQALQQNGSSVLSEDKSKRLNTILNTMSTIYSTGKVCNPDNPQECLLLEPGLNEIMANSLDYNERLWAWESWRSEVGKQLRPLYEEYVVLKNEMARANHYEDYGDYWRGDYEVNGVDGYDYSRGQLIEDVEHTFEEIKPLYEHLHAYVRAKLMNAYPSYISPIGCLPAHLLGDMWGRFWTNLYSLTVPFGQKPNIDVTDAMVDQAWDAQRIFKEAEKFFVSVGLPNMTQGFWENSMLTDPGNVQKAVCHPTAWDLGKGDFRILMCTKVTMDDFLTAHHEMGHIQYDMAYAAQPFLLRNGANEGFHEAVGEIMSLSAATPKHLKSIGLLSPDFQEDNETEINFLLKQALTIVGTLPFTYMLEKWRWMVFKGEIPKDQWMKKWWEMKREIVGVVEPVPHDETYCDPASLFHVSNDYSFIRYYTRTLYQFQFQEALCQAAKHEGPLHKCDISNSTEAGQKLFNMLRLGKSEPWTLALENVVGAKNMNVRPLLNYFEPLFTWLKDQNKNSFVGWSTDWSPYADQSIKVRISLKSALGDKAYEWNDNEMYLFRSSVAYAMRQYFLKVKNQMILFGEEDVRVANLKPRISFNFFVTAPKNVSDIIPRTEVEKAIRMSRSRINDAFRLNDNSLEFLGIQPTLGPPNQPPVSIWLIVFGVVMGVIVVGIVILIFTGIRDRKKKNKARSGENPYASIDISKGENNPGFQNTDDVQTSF

[9] = target: Replicase polyprotein 1ab (Severe acute respiratory syndrome coronavirus 2, UniProt P0DTD1); experiment: Inhibition of SARS-CoV-2 PLpro using Arg-Leu-Arg-Gly-Gly-AMC as substrate preincubated for 5 mins followed by substrate addition measured after 6 mins by fluorescence based assay

Structure (SMILES) | EC100 [1] [µM] | CC50 [1] [µM] | CC50 [2] [µM] | EC100 [2] [µM] | inhibition [3] [%] | inhibition [4] [%] | IC50 [5] [µM] | CC50 at 72 h [6] [µM] | logP [7] | IC50 ([8]; read-out: IC50) [µM] | IC50 ([8]; read-out: pIC50 (converted)) [µM] | IC50 ([9]; read-out: IC50) [µM] | IC50 ([9]; read-out: pIC50 (converted)) [µM]
O=CNc1ccccc1-c1noc(-c2ccccc2O)n1 | 15.708 | 31.4 | 40.6 | 8.116 | 35.1 | 44.3 |  |  |  |  |  |  | 
Nc1ccccc1-c1nc(-c2ccccc2)no1 | 11.681 | 24.7 | 57.2 | 19.059 | 21.1 | 31.4 |  |  |  |  |  |  | 
O=C(O)CN1C(=O)COc2ccccc2-c2nc(no2)-c2ccccc21 | 3.695 | 19.6 | 23.8 | 5.727 | 5.9 | 10.6 |  |  |  |  |  |  | 
Nc1ccccc1-c1noc(-c2ccccc2N)n1 | 12.25 | 29 | 48.7 | 9.738 | 16.2 | 26.1 |  |  |  |  |  |  | 
CCN(CC)CCCC(C)Nc1ccnc2cc(Cl)ccc12 (configuration not stated) [CHLOROQUINE] |  |  |  |  |  |  | 1.13 |  |  |  |  |  | 
Oc1ccccc1-c1noc(-c2ccccc2O)n1 | 3.36 | 19.5 | 26 | 5.208 | 11.7 |  |  |  |  |  |  |  | 
CCOC(=O)CN1C(=O)COc2ccccc2-c2nc(no2)-c2ccccc21 | 7.127 | 14.2 | 31.6 | 6.313 | 18.1 | 15.6 |  |  |  |  |  |  | 
Nc1ccccc1-c1noc(-c2ccccc2)n1 | 5.886 | 28.7 |  | 7.299 | 20.8 | 23.3 |  | 36.5 |  |  |  |  | 
Cc1ncc(COP(=O)([O-])O)c(/C=N/c2ccccc2-c2noc(-c3ccccc3)n2)c1O.[Na+] | 0.655 | 6.46 | 10.1 | 2.03 | 22.5 | 36.7 |  |  |  |  |  |  | 
Nc1ccccc1-c1noc(-c2ccncc2)n1 | 8.352 | 45.8 | 51.8 | 10.356 | 58.6 | 65.6 |  |  | 3.8 | 8.67 | 8.69 | 7.2 | 7.21
CCN(CCO)CCCC(C)Nc1ccnc2cc(Cl)ccc12 (configuration not stated) [HYDROXYCHLOROQUINE] |  |  |  |  |  |  | 0.72 |  |  |  |  |  | 
Nc1ccccc1-c1nc(-c2ccc(C(F)(F)F)cc2)no1 | 0.373 | 2.37 | 5.78 | 1.156 | 5 |  |  |  |  |  |  |  | 
Cc1ncc(COP(=O)([O-])O)c(/C=N/c2ccccc2-c2noc(-c3ccccc3O)n2)c1O.[Na+] | 2.718 | 1.03 | 3.21 | 4.956 | 13.9 | 26.1 |  |  |  |  |  |  | 
[N-]=[N+]=Nc1ccccc1-c1noc(-c2ccccc2O)n1 | 6.707 | 28.2 | 38.5 | 7.701 | 1.1 |  |  |  |  |  |  |  | 
Nc1ccccc1-c1noc(-c2ccccc2O)n1 | 4.114 | 22 | 32.4 | 6.474 | 13.6 | 18.1 |  |  |  |  |  |  | 
CC(=O)Oc1ccccc1-c1nc(-c2ccccc2N(C(C)=O)C(C)=O)no1 | 0.207 | 20.5 |  | 0.641 | 17.1 | 44.4 |  |  |  |  |  |  | 
